Measured values: patent publication US20170027171A1, “METHOD FOR CONTROLLING PLANT DISEASES” (Nihon Nohyaku Co., Ltd., priority 2014, published 2017)

Key:
Assay type in all cases: in vivo
[1] = test system: Pseudocercosporella herpotrichoides; test: Test for wheat eyespot, potted wheat, foliar spray before inoculation; settings: wheat in pots, percentage of stems with lesions three weeks after inoculation
Description: Test for Wheat Eyespot (Pseudocercosporella herpotrichoides)
The formulation produced in Formulation Example 1 was adjusted to predetermined concentrations and these prepared agrochemical liquids were applied to wheat plants in pots at a predetermined rate with a spray gun. After air-drying, the wheat pots were spray-inoculated with a spore suspension of wheat eyespot pathogen Pseudocercosporella herpotrichoides (4.2×10^6 spores/mL). After that, the wheat pots were kept in a greenhouse, in which the conditions favored the development of the disease. Three weeks after the inoculation, the percentage of stems with lesions was determined for the evaluation of the control effect.

Septoria nodorum = test: Test for wheat glume blotch, potted wheat, foliar spray before inoculation; settings: wheat in pots, 1000 L/ha spray, number of lesions per leaf ten days after inoculation
Description: Test for Wheat Glume Blotch (Septoria nodorum)
(§1) The formulation produced in Formulation Example 1 was adjusted to predetermined concentrations and these prepared agrochemical liquids were applied to wheat plants in pots at a rate equivalent to 1000 L/ha with a spray gun. After the agrochemical treatment, the wheat pots were kept outdoors for 1 day or 7 days, and then spray-inoculated with wheat leaf blotch pathogen Septoria nodorum (2.4×10^6 spores/mL). After that, the wheat pots were kept in a greenhouse, in which the conditions favored the development of the disease.
Ten days after the inoculation, the number of lesions per leaf was counted for the evaluation of the control effect.

[2] = test system: Septoria tritici, KUK-1-21 Strain; test: Test for wheat leaf blotch, potted wheat, foliar spray before inoculation
Description: Test for Wheat Leaf Blotch (Septoria tritici, KUK-1-21 Strain):
as §1, with “tritici (1×10^6” for “nodorum (2.4×10^6”, “disease. Three weeks after the inoculation, the lesion area index (0-10) was determined for the evaluation of the control effect.” for “disease.”

O=C1C(Cl)=C(Cl)C(=O)N1c1ccc(F)cc1 [Fluoroimide]
Control rate, Inoculated after treatment and air-drying ([1]; 125 ppm): 56
Control rate, Inoculated after treatment and air-drying ([1]; 250 ppm): 80
Control rate, Inoculated after treatment and air-drying ([1]; 500 ppm): 95
Control rate, Inoculated at 1 day post-treatment (Septoria nodorum; 62.5 ppm): 63
Control rate, Inoculated at 1 day post-treatment (Septoria nodorum; 125 ppm): 90
Control rate, Inoculated at 1 day post-treatment (Septoria nodorum; 250 ppm): 94
Control rate, Inoculated at 1 day post-treatment (Septoria nodorum; 500 ppm): 96
Control rate, Inoculated at 7 days post-treatment (Septoria nodorum; 500 ppm): 85
Control rate, Inoculated at 1 day post-treatment ([2]; 62.5 ppm, wheat in pots, 1000 L/ha spray, lesion area index three weeks after inoculation): 62
Control rate, Inoculated at 1 day post-treatment ([2]; 125 ppm, wheat in pots, 1000 L/ha spray, lesion area index three weeks after inoculation): 84
Control rate, Inoculated at 1 day post-treatment ([2]; 250 ppm, wheat in pots, 1000 L/ha spray, lesion area index three weeks after inoculation): 95
Control rate, Inoculated at 7 days post-treatment ([2]; 500 ppm, wheat in pots, 1000 L/ha spray, lesion area index three weeks after inoculation): 65
Effect for controlling leaf blotch (in words) ([2]; summary of the results): highly effective
